Test: Displacement of [3H]gabapentin from alpha2-delta subunit of calcium channel
With `O=C(O)C1NCC12CCCCC2` (configuration not stated) the IC50 was 1500 nM. For `O=C(O)C1CCNCC12CCCCC2` (configuration not stated), the IC50 was > 10000 nM. With `O=C(O)C[C@]12CCCC[C@H]1CNC2` the IC50 was > 10000 nM. Compound `NCC1(CC(=O)O)CCCCC1` [GABAPENTIN] has an IC50 of […]. With `O=C(O)[C@@H]1CNCC12CCCCC2` the IC50 was > 10000 nM. For `O=C(O)C[C@]12CCCC[C@H]1NC2`, the IC50 was > 10000 nM. With `O=C(O)[C@H]1CNCC12CCCCC2` the IC50 was 120 nM.
